According to patent EP4259152B1, “CEMTIRESTAT DISULFIDE, PRODRUG OF ALDO-KETO REDUCTASE INHIBITOR, PREPARATION, PHARMACEUTICAL COMPOSITION AND USE THEREOF” (Centrum Experimentálnej Medicíny SAV, v.v.i., priority 2020, dated 2022):
Like-named read-outs stand apart in the source and are kept apart here.

Tests used:
AKR1B1 = AKR1B1 (Homo sapiens, UniProt P15121); test: Inhibition of aldo-keto reductase AKR1B1; assay type: biochemical
[1] = Test A: Reduction of disulfide of formula I by GSH (cleavage kinetics to form cemtirestat of formula II, absorbance at 302 nm); assay type: physicochemical; details: mean ± SD, n=3; for Final degree of disulfide of formula I reduction: calculated after reaching the maximum in the 60th second, disulfide 50 µM, pH 7.4, 37 °C; for Initial rate of cemtirestat of formula II formation: disulfide of formula I 50 µM, 20 mM phosphate buffer (pH 7.4) at 37 °C
ALR2 = target: T1, ALR2 (Rattus norvegicus, UniProt P07943); test: Test B: Inhibition of ALR2 by disulfide of formula I in the presence of GSH (NADPH consumption at 340 nm); assay type: biochemical; details: disulfide of formula I 100 µM, 67 mM phosphate buffer (pH 7.4), 37 °C, measured 2 min after GSH addition
T1 construct: The ALR2 enzyme from rat lenses was isolated by the method of Hayman and Kinoshit; from tissue; host or cells: rat eye lenses
Experimental: Preparation ofALR2. The ALR2 enzyme from rat lenses was isolated by the method of Hayman and Kinoshit (J. Biol. Chem. 240: 877-882, 1965). The homogenate was centrifuged at 10,000 g at 0-4 °C for 20 min. The supernatant was precipitated with saturated ammonium sulfate solution gradually at 40 %, 50 % and finally at 75 % saturation. After the first two precipitations, the supernatant was used. The sediment from the last step, containing ALR2 activity, was resuspended in 75% ammonium sulfate and stored in smaller aliquots in a liquid nitrogen container.
Enzyme test. ALR2 activity was measured spectrophotometrically (Stefek et al.; Bioorg. Med Chem. 16: 4908-4920, 2008) by determining NADPH consumption at 340 nm and expressed as a decrease in optical density (O.D.) / s / mg protein. The reaction mixture contained 4.67 mM D,L-glyceraldehyde as substrate, 0.11 mM NADPH in 67 mM phosphate buffer (pH 7.4), GSH at the desired concentration and 0.05 ml of enzyme preparation a total volume of 1.5 ml. The reference (blank) sample contained all of the above components except D,L-glyceraldehyde substrate and was used to correct for NADPH oxidation unrelated to substrate reduction. Enzyme catalysis was initiated by the addition of D,L-glyceraldehyde and the reaction was monitored for 4 minutes after an initial 1 minute period at 37 °C. The enzyme activity was adjusted by diluting the enzyme preparations with distilled water so that 0.05 ml of the preparation gave an average reaction rate for the control samples in the range of 0.020 ± 0.005 absorbance units / min. The effect of inhibitor on enzyme activity was determined by adding a stock solution of inhibitor in DMSO to the reaction mixture at a final concentration of 100 µM so that the final DMSO concentration was 1%. An inhibitor with the same concentration was added to the reference sample. Enzyme activity was started 2 min after the addition of GSH to the reaction mixture by adding D,L-glyceraldehyde used as a substrate, and I(%) values were determined from the measured absorbance decrease values.

AKR1B10 [2] = target: T2, AKR1B10 (Homo sapiens, UniProt O60218); test: Inhibition of aldo-keto reductase AKR1B10; assay type: biochemical; details: meaning of 'does not interact per se'
[3] = Test C: Determination of the distribution ratio in the buffer/octan-1-ol system (shake-flask method); assay type: physicochemical; details: for D (distribution ratio in the buffer/octan-1-ol system): 100 µM, room temperature, mean ± SD, n=3
Experimental: The partition ratio in the buffer/1-octanol system (system name octan-1-ol), defined as the equilibrium ratio of the total solute concentration in the organic phase to the total solute concentration in the aqueous phase, was determined by the shake-flask method at room temperature. Octan-1-ol saturated with the desired buffer was used as the organic phase for the determination. […] The aqueous solution was shaken with octan-1-ol (20 mL) for 3 hours. Subsequently, the phases were separated in a separatory funnel and the concentration of the solute was determined spectrophotometrically in both phases by means of a calibration curve.

AKR1B10 [4] = target: T2, AKR1B10; details: Stefek et al.; J. Med Chem. 58: 2649-57, 2015; cited from earlier work

T2 sequence (O60218 whole entry, species assumed): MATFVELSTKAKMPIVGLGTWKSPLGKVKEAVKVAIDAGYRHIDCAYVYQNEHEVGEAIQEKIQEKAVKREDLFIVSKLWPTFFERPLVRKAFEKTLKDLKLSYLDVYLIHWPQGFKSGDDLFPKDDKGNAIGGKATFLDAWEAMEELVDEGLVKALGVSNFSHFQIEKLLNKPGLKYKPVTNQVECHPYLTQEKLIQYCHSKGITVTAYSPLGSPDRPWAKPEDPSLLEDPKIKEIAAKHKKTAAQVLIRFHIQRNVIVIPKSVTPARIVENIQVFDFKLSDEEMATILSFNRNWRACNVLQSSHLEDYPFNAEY

| IC50 (AKR1B1) [µM] | Final degree of disulfide of formula I reduction ([1]; GSH 25 µM) [%] | Final degree of disulfide of formula I reduction ([1]; GSH 50 µM) [%] | Final degree of disulfide of formula I reduction ([1]; GSH 100 µM) [%] | inhibition at 100 µM (ALR2; pH 7.4, GSH added 0 µM) [%] | inhibition at 100 µM (ALR2; pH 7.4, GSH added 5 µM) [%] | inhibition at 100 µM (ALR2; pH 7.4, GSH added 10 µM) [%] | inhibition at 100 µM (ALR2; pH 7.4, GSH added 20 µM) [%] | inhibition at 100 µM (ALR2; pH 7.4, GSH added 40 µM) [%] | inhibition at 100 µM (ALR2; pH 7.4, GSH added 100 µM) [%] | inhibition at 100 µM (ALR2; pH 7.4, GSH added 1000 µM) [%] | inhibition at 100 µM (ALR2; pH 7.4, GSH added 5000 µM) [%] | IC50 (AKR1B10 [2]) [µM] | water/octanol distribution ratio compared to cemtirestat of formula II ([3]; acidic environment at pH 4.6, fold higher than cemtirestat of formula II) [fold] | D (distribution ratio in the buffer/octan-1-ol system) ([3]; pH 4.6, acetate buffer (0.1M) + 0.15 M KCl) | D (distribution ratio in the buffer/octan-1-ol system) ([3]; pH 7.4, phosphate buffer (0.1M) + 0.15 M KCl) | SMILES | Initial rate of cemtirestat of formula II formation ([1]; GSH 25 µM) [nmol/mL/s] | Initial rate of cemtirestat of formula II formation ([1]; GSH 50 µM) [nmol/mL/s] | Initial rate of cemtirestat of formula II formation ([1]; GSH 100 µM) [nmol/mL/s] | IC50 (AKR1B10 [4]) [µM] |
| --- | --- | --- | --- | --- | --- | --- | --- | --- | --- | --- | --- | --- | --- | --- | --- | --- | --- | --- | --- | --- |
| > 100 | 39.68 ± 1.59 | 67.70 ± 3.72 | 85.16 ± 5.11 | < 1 | < 1 | 8.9 ± 0.6 | 12.4 ± 1.4 | 16.1 ± 6.9 | 72.6 ± 9.1 | 94 ± 1.6 | 91.1 ± 1.5 | > 100 | ~4 | 0.1136 ± 0.0022 | 0.0095 ± 0.0019 | O=C(O)Cn1c2ccccc2c2nnc(SSc3nnc4c5ccccc5n(CC(=O)O)c4n3)nc21 [Disulfide of formula I, 2,2'-(disulfanediylbis(5H-[1,2,4]triazino[5,6-b]indole-3,5-diyl))diacetic acid] | 4.46 ± 1.68 | 7.30 ± 1.46 | 9.83 ± 2.09 |  |
|  |  |  |  |  |  |  |  |  |  |  |  |  |  |  |  | O=C(O)Cn1c2ccccc2c2nnc(S)nc21 [Cemtirestat of formula II, 2-(3-thioxo-2,3-dihydro-5H-[1,2,4]triazino[5,6-b]indol-5-yl)acetic acid] |  |  |  | 3.69 ± 0.53 |
